# Like-named read-outs stand apart in the source and are kept apart here.
# Experiments:
# H1975 (lung) = assay: Cell proliferation assay (ATPlite), H1975; assay type: cell-based; conditions: 4 days, read-out: Growth inhibition (IC50)
# Method: (§1) Cell proliferation assays were performed in various oncology cell lines, including breast cancer (BT474 and MDA-MB468), leukemia (K562 CML and MV4;11 AML), colon (HCT116), prostate cancer (PC-3), Tarceva- and Iressa-resistant non-small cell lung cancer (NSCLC, […] and H1975), gastric cancer (N87) as well as glioblastoma (A172) cell lines. […] Cell viability at day 4 was measured by the amount of ATP present in viable cells using ATPlite assay kit according to manufacturer's protocol (Perkin Elmer, Boston, Mass.). IC50 was calculated by fitting the data using XLfit software.
# HSP90α = HSP90α (Homo sapiens, UniProt P07900); assay: HSP90α affinity; assay type: binding
# MV4;11 (leukemia) = assay: Cell proliferation assay (ATPlite), MV4;11; assay type: cell-based; conditions: 4 days, read-out: Growth inhibition (IC50)
# N87 (gastric) = assay: Cell proliferation assay (ATPlite), N87; assay type: cell-based; conditions: read-out: Growth inhibition (IC50)
# HCC827 (lung) = assay: Cell proliferation assay (ATPlite), HCC827; assay type: cell-based; conditions: 4 days, read-out: Growth inhibition (IC50)
# Method: as §1
# K562 (leukemia) = assay: Cell proliferation assay (ATPlite), K562; assay type: cell-based; conditions: 4 days, read-out: Growth inhibition (IC50)
# BT474 (breast) = assay: Cell proliferation assay (ATPlite), BT474; assay type: cell-based; conditions: read-out: Growth inhibition (IC50)
# HCT116 (colon) = assay: Cell proliferation assay (ATPlite), HCT116; assay type: cell-based; conditions: 4 days, read-out: Growth inhibition (IC50)
# MDA-MB468 (breast) = assay: Cell proliferation assay (ATPlite), MDA-MB468; assay type: cell-based; conditions: for IC50: read-out: Growth inhibition (IC50)
# MDA231 (breast) = assay: Cell proliferation assay (ATPlite), MDA231; assay type: cell-based; conditions: 4 days, read-out: Growth inhibition (IC50)
# A172(glioblastoma) = assay: Cell proliferation assay (ATPlite), A172; assay type: cell-based; conditions: 4 days, read-out: Growth inhibition (IC50)
# Method: as §1
# [1] = In vitro partition between plasma and cells in mouse whole blood; assay type: in vitro ADME; conditions: for Test article concentration in cellular elements / Test article concentration in plasma: mouse whole blood spiked at 5 μg/mL, 37° C.; for Partition of the test articles between plasma and cells: mouse whole blood, 5 μg/mL
# Method: The whole blood was withdrawn from mice via cardio-puncture and placed in EDTA anticoagulant tubes. The test articles were spiked to whole blood at final concentration of 5 μg/mL (at least 2 mL) and incubated at 37° C. 200 μL whole blood was taken at 0 (immediate after incubation), 5 min, 15 min and 30 min and then was centrifuged to separate plasma and cellular elements. Plasma was transferred to clean tubes. 50 μL of plasma and cellular elements were processed by addition of 3 volumes (150 μl) of ice-cold methanol. After centrifugation, the supernatants were subjected to LC-MS/MS analysis of test articles in both plasma and cellular elements.
# [2] = In vitro conversion/stability of prodrug in plasma; assay type: in vitro ADME; conditions: mouse plasma; at 60 minutes
# Method: (§2) Hydrolysis of prodrug in vivo was estimated by incubating phosphate prodrugs in vitro with mouse small intestine and liver homogenates, mouse plasma, and artificial gastric fluid. Plasma was freshly collected from nude mice. Liver and intestine homogenates were prepared by adding 3 volume of saline to freshly collected mouse tissues and homogenized using glass homogenizer. Gastric fluid was prepared by adding 80 mL of 1M hydrochloric acid to 800 mL of water and then supplementing with 2.0 g of sodium chloride and 3.2 g of pepsin powder. The final volume of the artificial gastric fluid was adjusted with water to 1000 mL (pH=1.1). […] 100 μL samples were collected at 0, 2, 5, 15, 30 and 60 minutes. 5 volumes methanol containing internal standard was added immediately. For samples from gastric fluid incubation, 1 volume of 0.01 M Sodium hydroxide was added before injection into LC/MS/MS. All samples were analyzed by LC/MS/MS to quantitate the concentration of 1a, 1b and the corresponding parent drugs. The concentration of the parent drugs of 1a and 1b was quantitated using standard curve prepared using each vehicle.
# (§3) We then evaluate other prodrug conversion in vitro using tissue homogenates and a mimic of gastric fluid (pepsin solution at pH 1.1).
# [3] = Solubility of phosphate prodrugs in organic- and aqueous-based media; assay type: physicochemical; conditions: for solubility: read-out: Maximum observed solubility
# Method: Crystalline phosphate drugs 1a and 1b were tested first in several different organic- and aqueous-based media, including water, PBS, ETOH, DMA, CMC, and PG.
# The maximum observed solubilities with small lots of crystalline drug in 4-mL glass clear tubes were: […]
# [4] = In vitro conversion/stability of prodrug in artificial gastric fluid (pepsin solution, pH 1.1); assay type: in vitro ADME; conditions: artificial gastric fluid pH 1.1; at 60 minutes
# Method: as §2, §3
# MCF-7 xenograft tumors = conditions: mice bearing MCF-7 xenograft tumors; intraperitoneally, 200 mg/kg; DMSO/EtOH/phosphate-buffered saline 1:1:1; cited from earlier work
# [5] = Solubility for oral formulation of PU24FCl; assay type: physicochemical; conditions: in our hands
# Excerpt: More recently, other novel non-natural product Hsp90 inhibitors have been reported (e.g. PU3 and CCT018159; see Chiosis et. al. Bioorg. Med. Chem. Lett. 2002, 10, 3555-3564; Vilenchik et. al. Chem. Biol. 2004, 11, 787-797; Chiosis et. al. WO 0236075, 2002; Drysdale et. al. WO 03/055860 A1, 2003; Wright et. al. Chem. Biol. 2004, 11, 775-785; Dymock et. al. Bioorg. Med. Chem. Lett. 2004, 14, 325-328; Dymock et. al. J. Med. Chem. 2005, 48, 4212-4215. Structure of Hsp90 in complex with PU3 pdb code 1UY6, and with PU24FCl: pdb code 1UYF and Clevenger et. al. Org. Lett. 2004, 6, 4459-4462). […] The 8-benzyladenines such as PU3 were designed to adopt the same C-shaped conformation as geldanamycin (Chiosis et. al. Current Cancer Drug Targets, 2003, 3, 371-376) with the adenine ring pointing to the adenine-binding site (hinge region), and the trimethoxybenzene ring emulating the H-bond accepting nature of the quinone ring of geldanamycin. […]
# [6] = BT474 (breast), 4 days, cell viability by ATPlite
# [7] = MDA-MB468 (breast), 4 days, ATPlite
SMILES,IC50 (H1975 (lung)) [nM],HSP90α affinity (HSP90α),IC50 (MV4;11 (leukemia)) [nM],IC50 (HCC827 (lung)) [nM],IC50 (K562 (leukemia)) [nM],IC50 (BT474 (breast); [6]) [nM],IC50 (HCT116 (colon)) [nM],IC50 (MDA-MB468 (breast); [7]) [nM],"IC50 (N87 (gastric); N87 (gastric), 4 days, ATPlite) [nM]",IC50 (MDA231 (breast)) [nM],Test article concentration in cellular elements ([1]; 0 min) [ng/mL],Test article concentration in plasma ([1]; 0 min) [ng/mL],Test article concentration in cellular elements ([1]; 5 min) [ng/mL],Test article concentration in plasma ([1]; 5 min) [ng/mL],Test article concentration in cellular elements ([1]; 15 min) [ng/mL],Test article concentration in plasma ([1]; 15 min) [ng/mL],Test article concentration in cellular elements ([1]; 30 min) [ng/mL],Test article concentration in plasma ([1]; 30 min) [ng/mL],Partition of the test articles between plasma and cells [1],Prodrug intact in plasma [2],also measured
O=C1OCC/C=C/CC/C=C/C(=N\OCC(=O)N2CCCCC2)Cc2cc(O)cc(O)c21 [1b parent],,15 nM,2,,4,2,11,2,1,2,,,,,,,,,,,
O=C1OCC/C=C/CC/C=C/C(=N\OCC(=O)N2CCCCC2)Cc2c(Cl)c(OP(=O)(O)O)cc(O)c21 [Compound 1a],,,,,,,,,,,1893.93,7988.91,1632.69,7654.94,1655.20,8123.27,1956.15,9680.38,"The concentration of 1a and 1b in plasma is larger than the nominated concentration in whole blood (5 μg/mL), which indicated that the partition of the test articles was mainly in plasma.",about 90%,solubility ([3]; 0.5% CMC/0.1% Tween-20/0.45% NaCl): 87.5 mg/mL; solubility ([3]; PBS): 55 mg/mL; Solubility in water and PBS compared to the parent drugs [3]: very soluble; Prodrug intact in artificial gastric fluid [4]: about 70%
O=C1OCC/C=C/CC/C=C/C(=N\OCC(=O)N2CCCCC2)Cc2cc(OP(=O)(O)O)cc(O)c21 [Compound 1b],,>10 000 nM,,,,,,,,,1999.60,7119.50,1364.01,7833.27,1070.97,7672.71,1237.82,7409.47,"The concentration of 1a and 1b in plasma is larger than the nominated concentration in whole blood (5 μg/mL), which indicated that the partition of the test articles was mainly in plasma.",about 90%,"Binding to Hsp90 in vitro (HSP90α): does not bind; IC50 (N87 (gastric); 96 h): 19 nM; Solubility in water and PBS compared to the parent drugs [3]: very soluble; Prodrug intact in artificial gastric fluid [4]: about 70%; IC50 (BT474 (breast); Homo sapiens, BT-474, 96 h): 14 nM; IC50 (MDA-MB468 (breast); Homo sapiens, MDA-MB-468, 96 h): 37 nM"
C#CCCCn1c(Cc2cc(OC)c(OC)c(OC)c2Cl)nc2c(N)nc(F)nc21 [PU24FCl],,,,,,,,,,,,,,,,,,,,,Tumor growth (MCF-7 xenograft tumors): significantly repressed tumor growth; Solubility for oral formulation and delivery [5]: too insoluble

# Further lines, with some results ahead:
IC50 (H1975 (lung)) [nM],HSP90α affinity (HSP90α),IC50 (MV4;11 (leukemia)) [nM],IC50 (HCC827 (lung)) [nM],IC50 (K562 (leukemia)) [nM],IC50 (BT474 (breast); [6]) [nM],IC50 (HCT116 (colon)) [nM],IC50 (MDA-MB468 (breast); [7]) [nM],SMILES,"IC50 (N87 (gastric); N87 (gastric), 4 days, ATPlite) [nM]",IC50 (MDA231 (breast)) [nM],Test article concentration in cellular elements ([1]; 0 min) [ng/mL],Test article concentration in plasma ([1]; 0 min) [ng/mL],Test article concentration in cellular elements ([1]; 5 min) [ng/mL],Test article concentration in plasma ([1]; 5 min) [ng/mL],Test article concentration in cellular elements ([1]; 15 min) [ng/mL],Test article concentration in plasma ([1]; 15 min) [ng/mL],Test article concentration in cellular elements ([1]; 30 min) [ng/mL],Test article concentration in plasma ([1]; 30 min) [ng/mL],Partition of the test articles between plasma and cells [1],Prodrug intact in plasma [2],also measured
25,21 nM,3,31,6,7,9,9,O=C1OCC/C=C/CC/C=C/C(=N\OCC(=O)N2CCCCC2)Cc2c(Cl)c(O)cc(O)c21 [1a parent],4,7,,,,,,,,,,,IC50 (A172(glioblastoma)): 42 nM
35,,11,56,48,5,,780,"C=CCNC1=C2C[C@@H](C)C[C@H](OC)[C@H](O)[C@@H](C)/C=C(\C)[C@H](OC(N)=O)[C@@H](OC)/C=C\C=C(/C)C(=O)NC(=CC1=O)C2=O [Compound 17AAG, 17-allylamino-17-demethoxygeldanamycin, reference compound]",1,,,,,,,,,,,,Anti-proliferative activity against MDA-MB468 (MDA-MB468 (breast); MDA-MB468): significantly less sensitive

# Source: patent publication US20110190237A1, “Macrocyclic Prodrug Compounds Useful as Therapeutics” (NEXGENIX PHARMACEUTICALS, priority 2008, published 2011)
